Laboratory results: patent US6069150A, “Use of derivatives of tetrahydro-beta-carbolines as antimetastatic agents” (F. Hoffman-La Roche AG, priority 1996, dated 2000)
Read-outs that look alike come from different tables or passages of the source.

Tests used:
[1] = target: T1, MMP8 (human neutrophil collagenase) (Homo sapiens, UniProt P22894); experiment: in vitro test of inhibition of MMP8 (human neutrophil collagenase), fluorescent substrate degradation by catalytic domain of MMP8; format: biochemical; conditions: for inhibition at 0.1 µg/mL: conc. 0.1 μg/ml
T1 construct: by means of the catalytic domain of MMP8
T1 sequence (P22894 100-262 limits assumed): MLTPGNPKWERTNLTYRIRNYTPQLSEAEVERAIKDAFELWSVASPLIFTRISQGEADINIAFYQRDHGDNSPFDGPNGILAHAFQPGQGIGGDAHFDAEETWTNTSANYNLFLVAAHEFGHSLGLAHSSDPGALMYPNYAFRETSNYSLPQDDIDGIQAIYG
Text: The compounds of the present invention have been tested in a pharmacological "in vitro" test of inhibition of MMP8 (human neutrophil collagenase). Said test provides for the determination via fluorescence of the inhibition of the degradation of a fluorescent substrate (DNP-Pro-Leu-Gly-Leu-Trp-Ala-D-Arg-NH2, M1855 Bachem) by means of the catalytic domain of MMP8.
1) DNP-substrate=DNP-Pro-Leu-Gly-Leu-Trp-Ala-D-Arg-NH2 (M1855 Bachem), M.W. 977.1 g/mol, concentration 25 (μM in DMSO; 2) measurement buffer=50 mM TRIS/100 mM NaCl/10 mM CaCl2.2H2 O, adjusted at pH 7.6 with hydrochloric acid. 3) Enzyme=catalytic domain of MMP8 (92 Kda), concentration 0.055 mg/ml in TRIS buffer. Substrate and enzyme are maintained at 0° C. with ice bath.
Total volume=1 ml of solution kept under stirring in a cuvette.
0.01 ml of inhibitor (10 (g/ml).
It is measured the fluorescence at 346 nm both of the control solution (without inhibitor) and of the solution containing the inhibitor. The inhibition of the catalytic activity of MMP8 results in the decrease in the DNP-substrate lysis, with related decrease in the fluorescence of the solution.
The percentage of inhibition is expressed by the following formula:
% Inhibition=100-(rel. unit/timewith inhibitor /rel.
By repeating the experiment at different concentrations of inhibitor it is possible to determine the IC50 value.

[2] = test system: human fibrosarcoma HT1080 cells; experiment: test of chemoinvasion (HT1080 cells through Type IV collagen coated Transwell filters); format: cell-based
Experimental: The compounds of the present invention have also shown activity in an "[…]" test of chemoinvasion. In the test of chemoinvasion the Costar Transwell chambers for cell culture (diameter: 6.5 mm; pore size: 8 μm) are coated with 100 μl of Type IV collagen (diluted solution 50 μg/ml, then evaporation overnight). With the same procedure the chambers are coated with a second layer of Type IV collagen (100 μl of solution at concentration 50 μg/ml). Before use, the chambers are rinsed twice with sterile water and incubated for about 1 hour at 37° C. in a serum-free medium (DMEM).
The human fibrosarcoma HT1080 cells are harvested by trypsin-EDTA treatment, washed with DMEM+10% FCS and incubated for at least 30 minutes at 37° C. in the same medium. The cells are then washed with serum-free DMEM and resuspended in serum-free DMEM added with 0.1% BSA (fraction V), counted and diluted to obtain a final density of 3×10^5 cell/ml. […]
Incubated filters are then washed with PBS, the cells are fixed 15 min in 4% paraformaldehyde, permeabilized in methanol (10 minutes, -20° C.) and stained with May-Grunwald-Giemsa. Cells which adhere to the top of the filters are removed with a cotton swab, filters are detached from the bottom of the chambers and analyzed with microscope to determine the number of cells on the lower side of the filters. […]

[3] = MMP8 catalytic domain, DNP-substrate, fluorescence at 346 nm, read-out: IC50 (converted)

SMILES | IC50 [1] [nM] | inhibition at 0.1 µg/mL [1] [%] | IC50 [1, 3] [nM] | inhibition at 10 µg/mL ([1]; conc. 10 μg/ml) [%] | IC50 ([2]; HT-1080, 24 h + 24 h) [nM] | inhibition at 0.1 µM ([2]; HT-1080, conc. 10^-7 M, 24 h + 24 h) [%]
COc1ccc2[nH]c3c(c2c1)CCNC3 [6-methoxy-1,2,3,4-tetrahydronorharmane] | 297 | 100 |  |  |  | 
COc1ccc2[nH]c3c(c2c1)CCNC3C(=O)O (centres unmarked) [6-methoxy-1,2,3,4-tetrahydronorharman-1-carboxylic acid] |  |  | 203 | 100 | 200 | 56.5
O=C(O)C1Cc2c([nH]c3ccccc23)CN1 (centres unmarked) [1,2,3,4-tetrahydronorharman-3-carboxylic acid] |  | 100 | 324 |  |  | 
